Where a name gives a salt, the structure may show the parent alone.
Test system: Mnk2 (Mnk2a or Mnk2b) or Mnk1
Experiment: not given
Conditions: cell culture cells transfected with Mnk2 (Mnk2a or Mnk2b) or Mnk1; cited from earlier work

Row | Structure (SMILES) | reduction of phosphorylated eIF4E
1 | Nc1ncnc2n[nH]c(Nc3ccc(F)cc3)c12 [CGP57380] | strong reduction

Molecular target: T1, human Mnk2a (Homo sapiens, UniProt Q9HBH9)
T1 construct: the open reading frames of human Mnk1 and Mnk2a were amplified from cDNA; made in house; host or cells: E. coli BL21
Experiment: Mnk2a in vitro kinase assay (indirect fluorescence polarization)
Type: biochemical
Conditions: assay of example 2a; 20 μM ATP, 2.5 nM pre-activated Mnk2a; read-out: MNK2 Inhibition (IC50)
Description: Assay principle: Inhibitory potency of compounds against Mnk1, Mnk2a and other kinases was assessed with assays based on a format known to those skilled in the art as the indirect (competitive) fluorescence polarization. The assay detection system comprises a small fluorophore-labeled phospho-peptide (termed ligand) bound to a phospho-specific antibody. The product generated by the kinase reaction competes with the ligand for antibody binding. Based on the larger molecular volume of the bound ligand, which results in a lower rotation rate in solution, its emitted light has a higher degree of polarization than the one from the free ligand.
As a source of enzyme, human Mnk1 and human Mnk2a were expressed as GST fusion proteins in E. coli, purified to >80% homogeneity by glutathione affinity chromatography and activated in vitro with pre-activated ERK2. In brief, the open reading frames of human Mnk1 and Mnk2a were amplified from cDNA using the forward/reverse primer pairs
(utilized restriction sites underlined), respectively, and cloned into the BamHI and SalI sites of the vector pGEX-4T1 (Amersham, Sweden, cat. no. 27-4580-01). These constructs allow prokaryotic expression of Mnk1 or Mnk2a as fusion protein with a N-terminal glutathione S-transferase (GST) tag, referred to as GST-Mnk1 or GST-Mnk2a. The following expression and purification procedure was identical for GST-Mnk1 and GST-Mnk2a, referring in general to GST-Mnk, when not distinguishing between the two isoforms. Expression of GST-Mnk was in E. coli BL21 (Merck Biosciences, Germany, cat. no. 69449). Cells were grown in LB-Bouillon (Merck, Germany, cat. no. 1.10285) supplemented with 100 μg/ml ampicillin (Sigma, Germany, cat. no. A9518) at 37° C. When the culture had reached a density corresponding to an A600 of 0.8, an equal volume of ice cold LB/ampicillin was added, the culture transferred to 25° C. and induced for 4 h with 1 mM isopropyl thiogalactoside (IPTG, Roth, Germany, cat. no. 2316.4). Cells harvested by centrifugation were resuspended in 10 ml lysis buffer (50 mM tris(hydroxymethyl)aminomethane hydrochloride (Tris/HCl, Sigma, Germany, cat. no. T5941) pH 7.5, 300 mM sodium chloride (NaCl, Sigma, Germany, cat. no. S7653), 5% (w/v) glycerol (Sigma, Germany, cat. no. G5516), 3 mM DTT dithiotreitol (DTT, Sigma, Germany, cat. no. D9779)) per gram wet weight cell pellet. Lysates were prepared by disruption of cells with a sonifier and subsequent clearing by centrifugation at 38000 g for 45 min at 4° C.
The lysate was applied to a GSTPrep FF 16/10 column (Amersham, Sweden, cat. no. 17-5234-01) equilibrated with lysis buffer. Removal of unbound material was with 3 column volumes (CV) lysis buffer. Elution was with 2 CV of elution buffer (50 mM Tris/HCl pH 7.5, 300 mM NaCl, 5% (w/v) glycerol, 20 mM glutathione (Sigma, Germany, cat. no. G4251)). Peak fractions were pooled and the protein transferred into storage buffer (50 mM Tris/HCl pH 7.5, 200 mM NaCl, 0.1 mM ethylene glycol-bis(2-aminoethylether)-N,N,N′,N′-tetraacetic acid (EGTA, Aldrich, Germany, cat. no. 23, 453-2), 1 mM DTT, 10% (w/v) glycerol, 0.5 M sucrose (Sigma, Germany, cat. no. S0389) by gel filtration on a PD10 desalting column (Amersham, Sweden, cat. no. 17-0851-01). Aliquots were shock frozen in liquid nitrogen and stored at −80° C.
Activation of Mnk1 and Mnk2a was at a concentration of 2.5 μM of either purified GST-Mnk1 or GST-Mnk2a by incubation with 150 nM pre-activated NHis-ERK2 (see ERK2 assay for preparation) and 50 μM adenosine triphosphate (ATP, Sigma, cat. no. A2699) in a buffer comprising 20 mM N-(2-hydroxyethyl)piperazine-N′-(2-ethanesulfonic acid) (HEPES, Fluka, Germany, cat. no 54459)/potassium hydroxide (KOH, Roth, Germany, cat. no 6751.1) pH 7.4, 10 mM magnesium chloride (MgCl2, Sigma, Germany, cat. no. M2670), 0.25 mM DTT, 0.05% (w/v) polyoxyethylene 20 stearylether (Brij 78, Sigma, Germany, cat. no. P4019) (HMDB buffer) for 45 min at 30° C. […]

T1 sequence (Q9HBH9 whole entry): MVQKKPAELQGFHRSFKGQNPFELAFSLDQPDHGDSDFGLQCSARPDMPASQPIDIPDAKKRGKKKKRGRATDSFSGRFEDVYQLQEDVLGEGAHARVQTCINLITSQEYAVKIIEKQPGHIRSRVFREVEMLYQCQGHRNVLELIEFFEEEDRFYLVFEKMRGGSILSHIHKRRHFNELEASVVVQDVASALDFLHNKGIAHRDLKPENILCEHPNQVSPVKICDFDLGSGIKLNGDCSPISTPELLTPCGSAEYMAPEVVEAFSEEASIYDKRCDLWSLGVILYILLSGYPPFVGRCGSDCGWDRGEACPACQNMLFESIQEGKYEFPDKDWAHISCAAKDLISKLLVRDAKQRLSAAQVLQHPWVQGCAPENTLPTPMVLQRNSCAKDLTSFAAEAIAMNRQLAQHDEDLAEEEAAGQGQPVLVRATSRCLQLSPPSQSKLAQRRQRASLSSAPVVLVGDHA

Row | Structure (SMILES) | IC50
2 | Cc1c(Cl)sc2ncnc(Nc3ccc(F)cc3OC(C)CN)c12 (stereo not shown) [Example 13, [2-(2-Amino-1-methyl-ethoxy)-4-fluoro-phenyl]-(6-chloro-5-methyl-thieno[2,3-d]pyrimidin-4-yl)-amine trifluoroacetate] | 10 nM
3 | Cc1c(Cl)sc2ncnc(Nc3ccc(F)cc3OC(C)CNS(C)(=O)=O)c12 (stereo not shown) [Example 15, N-{2-[2-(6-Chloro-5-methyl-thieno[2,3-d]pyrimidin-4-ylamino)-5-fluoro-phenoxy]-propyl}-methanesulfonamide] | 9 nM
4 | CCOc1cc(C(N)=O)ccc1Nc1ncnc2sc(Cl)c(C)c12 [Example 16.2, 4-(6-Chloro-5-methyl-thieno[2,3-d]pyrimidin-4-ylamino)-3-ethoxy-benzamide] | 16 nM

Further lines, results first:

Row | IC50 | Structure (SMILES)
5 | 58 nM | Cc1c(Br)sc2ncnc(Nc3ccc(F)cc3OC(C)C)c12 [Example 18, (6-Bromo-5-methyl-thieno[2,3-d]pyrimidin-4-yl)-(4-fluoro-2-isopropoxy-phenyl)-amine]
6 | 11 nM | Cc1c(Br)sc2ncnc(Nc3ccc(F)cc3OC(C)CN)c12 (stereo not shown) [Example 8, [2-(2-Amino-1-methyl-ethoxy)-4-fluoro-phenyl]-(6-bromo-5-methyl-thieno[2,3-d]pyrimidin-4-yl)-amine]
7 | 8 nM | Cc1c(Br)sc2ncnc(Nc3ccc(F)cc3OC(C)CNS(C)(=O)=O)c12 (stereo not shown) [Example 10, N-{2-[2-(6-Bromo-5-methyl-thieno[2,3-d]pyrimidin-4-ylamino)-5-fluoro-phenoxy]-propyl}-methanesulfonamide]
